# According to ChEMBL document CHEMBL1201862, “PubChem BioAssay data set” (2004):
# Activity calls are given as the source filed them.
# Columns and labels:
# Genome polyprotein = Genome polyprotein (dengue virus type 2, UniProt P29990); test: Dengue-2 NS5 methyltransferase inhibitors, primary screen, biochemical, confirmation dose response (AID 588689); assay type: functional
# [1] = target: T1, Histone-lysine N-methyltransferase NSD2 (Homo sapiens, UniProt O96028); assay type: biochemical
# T1 sequence (O96028 whole entry): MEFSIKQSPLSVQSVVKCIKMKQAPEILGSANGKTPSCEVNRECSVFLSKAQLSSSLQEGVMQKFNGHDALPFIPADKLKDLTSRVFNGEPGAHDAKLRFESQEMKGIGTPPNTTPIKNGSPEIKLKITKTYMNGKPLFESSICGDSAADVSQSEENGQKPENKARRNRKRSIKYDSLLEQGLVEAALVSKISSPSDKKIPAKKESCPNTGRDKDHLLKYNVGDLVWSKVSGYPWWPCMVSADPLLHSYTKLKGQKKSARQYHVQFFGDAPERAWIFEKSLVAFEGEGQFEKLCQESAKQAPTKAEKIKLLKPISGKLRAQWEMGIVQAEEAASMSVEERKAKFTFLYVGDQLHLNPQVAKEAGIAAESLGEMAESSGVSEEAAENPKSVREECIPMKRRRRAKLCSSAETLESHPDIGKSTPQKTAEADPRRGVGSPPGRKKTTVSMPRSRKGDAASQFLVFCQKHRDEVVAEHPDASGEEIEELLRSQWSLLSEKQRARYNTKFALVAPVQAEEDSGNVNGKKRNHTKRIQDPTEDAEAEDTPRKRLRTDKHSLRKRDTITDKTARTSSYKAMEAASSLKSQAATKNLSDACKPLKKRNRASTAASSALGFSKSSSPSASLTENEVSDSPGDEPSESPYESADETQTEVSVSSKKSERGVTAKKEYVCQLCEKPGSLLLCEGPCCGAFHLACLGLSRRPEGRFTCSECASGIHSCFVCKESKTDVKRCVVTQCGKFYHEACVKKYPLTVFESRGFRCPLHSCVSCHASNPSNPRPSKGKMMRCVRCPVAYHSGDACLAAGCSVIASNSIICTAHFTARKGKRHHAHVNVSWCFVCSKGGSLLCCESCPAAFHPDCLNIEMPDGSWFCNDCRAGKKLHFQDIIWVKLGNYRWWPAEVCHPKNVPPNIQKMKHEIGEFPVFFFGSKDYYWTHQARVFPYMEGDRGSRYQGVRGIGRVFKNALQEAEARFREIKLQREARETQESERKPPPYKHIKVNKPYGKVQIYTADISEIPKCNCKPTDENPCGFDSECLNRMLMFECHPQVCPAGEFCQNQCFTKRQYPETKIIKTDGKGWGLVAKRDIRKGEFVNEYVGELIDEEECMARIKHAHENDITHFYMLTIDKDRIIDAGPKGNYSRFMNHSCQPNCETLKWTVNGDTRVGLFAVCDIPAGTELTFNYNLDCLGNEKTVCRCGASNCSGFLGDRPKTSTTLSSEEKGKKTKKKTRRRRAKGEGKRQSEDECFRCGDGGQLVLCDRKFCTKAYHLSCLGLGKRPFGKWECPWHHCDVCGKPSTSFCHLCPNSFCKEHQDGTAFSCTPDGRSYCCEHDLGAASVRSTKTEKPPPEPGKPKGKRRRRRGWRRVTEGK
# [2] = target: T2, Tyrosine-protein kinase receptor TYRO3 (Homo sapiens, UniProt Q06418); assay type: functional;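 note: TYRO3 value obtained as one member of a kinome-wide profiling panel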
# T2 sequence (Q06418 whole entry): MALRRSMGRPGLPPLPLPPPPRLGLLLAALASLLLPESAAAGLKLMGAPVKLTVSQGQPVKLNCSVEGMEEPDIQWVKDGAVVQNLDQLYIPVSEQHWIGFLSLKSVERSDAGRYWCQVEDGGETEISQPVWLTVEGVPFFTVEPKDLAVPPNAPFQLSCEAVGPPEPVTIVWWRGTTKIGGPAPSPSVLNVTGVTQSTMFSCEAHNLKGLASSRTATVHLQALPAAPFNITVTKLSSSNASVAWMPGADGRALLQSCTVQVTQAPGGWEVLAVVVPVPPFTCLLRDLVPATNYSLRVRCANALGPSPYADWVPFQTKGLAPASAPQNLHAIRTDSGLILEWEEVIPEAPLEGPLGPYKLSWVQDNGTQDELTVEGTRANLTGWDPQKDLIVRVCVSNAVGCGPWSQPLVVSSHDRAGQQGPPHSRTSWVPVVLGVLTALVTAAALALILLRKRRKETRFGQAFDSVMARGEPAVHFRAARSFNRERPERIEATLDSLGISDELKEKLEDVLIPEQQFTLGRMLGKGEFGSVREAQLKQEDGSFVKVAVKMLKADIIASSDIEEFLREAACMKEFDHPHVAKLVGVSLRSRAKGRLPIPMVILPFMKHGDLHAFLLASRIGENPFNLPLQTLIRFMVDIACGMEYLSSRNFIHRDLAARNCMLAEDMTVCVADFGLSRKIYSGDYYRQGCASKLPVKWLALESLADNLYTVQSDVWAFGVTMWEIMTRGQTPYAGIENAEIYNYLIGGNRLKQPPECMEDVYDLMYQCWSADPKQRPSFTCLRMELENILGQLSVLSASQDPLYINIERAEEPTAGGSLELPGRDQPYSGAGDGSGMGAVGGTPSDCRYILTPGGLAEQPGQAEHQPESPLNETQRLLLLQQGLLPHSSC
# [3] = target: Mitogen-activated protein kinase kinase kinase 20 (Homo sapiens, UniProt Q9NYL2); assay type: functional
# [4] = target: Proto-oncogene tyrosine-protein kinase ROS (Homo sapiens, UniProt P08922); assay type: functional;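 note: ROS1 tested as one member of a kinome-wide kinase panel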
# Chain of Proto-oncogene tyrosine-protein kinase ROS (P08922 whole entry): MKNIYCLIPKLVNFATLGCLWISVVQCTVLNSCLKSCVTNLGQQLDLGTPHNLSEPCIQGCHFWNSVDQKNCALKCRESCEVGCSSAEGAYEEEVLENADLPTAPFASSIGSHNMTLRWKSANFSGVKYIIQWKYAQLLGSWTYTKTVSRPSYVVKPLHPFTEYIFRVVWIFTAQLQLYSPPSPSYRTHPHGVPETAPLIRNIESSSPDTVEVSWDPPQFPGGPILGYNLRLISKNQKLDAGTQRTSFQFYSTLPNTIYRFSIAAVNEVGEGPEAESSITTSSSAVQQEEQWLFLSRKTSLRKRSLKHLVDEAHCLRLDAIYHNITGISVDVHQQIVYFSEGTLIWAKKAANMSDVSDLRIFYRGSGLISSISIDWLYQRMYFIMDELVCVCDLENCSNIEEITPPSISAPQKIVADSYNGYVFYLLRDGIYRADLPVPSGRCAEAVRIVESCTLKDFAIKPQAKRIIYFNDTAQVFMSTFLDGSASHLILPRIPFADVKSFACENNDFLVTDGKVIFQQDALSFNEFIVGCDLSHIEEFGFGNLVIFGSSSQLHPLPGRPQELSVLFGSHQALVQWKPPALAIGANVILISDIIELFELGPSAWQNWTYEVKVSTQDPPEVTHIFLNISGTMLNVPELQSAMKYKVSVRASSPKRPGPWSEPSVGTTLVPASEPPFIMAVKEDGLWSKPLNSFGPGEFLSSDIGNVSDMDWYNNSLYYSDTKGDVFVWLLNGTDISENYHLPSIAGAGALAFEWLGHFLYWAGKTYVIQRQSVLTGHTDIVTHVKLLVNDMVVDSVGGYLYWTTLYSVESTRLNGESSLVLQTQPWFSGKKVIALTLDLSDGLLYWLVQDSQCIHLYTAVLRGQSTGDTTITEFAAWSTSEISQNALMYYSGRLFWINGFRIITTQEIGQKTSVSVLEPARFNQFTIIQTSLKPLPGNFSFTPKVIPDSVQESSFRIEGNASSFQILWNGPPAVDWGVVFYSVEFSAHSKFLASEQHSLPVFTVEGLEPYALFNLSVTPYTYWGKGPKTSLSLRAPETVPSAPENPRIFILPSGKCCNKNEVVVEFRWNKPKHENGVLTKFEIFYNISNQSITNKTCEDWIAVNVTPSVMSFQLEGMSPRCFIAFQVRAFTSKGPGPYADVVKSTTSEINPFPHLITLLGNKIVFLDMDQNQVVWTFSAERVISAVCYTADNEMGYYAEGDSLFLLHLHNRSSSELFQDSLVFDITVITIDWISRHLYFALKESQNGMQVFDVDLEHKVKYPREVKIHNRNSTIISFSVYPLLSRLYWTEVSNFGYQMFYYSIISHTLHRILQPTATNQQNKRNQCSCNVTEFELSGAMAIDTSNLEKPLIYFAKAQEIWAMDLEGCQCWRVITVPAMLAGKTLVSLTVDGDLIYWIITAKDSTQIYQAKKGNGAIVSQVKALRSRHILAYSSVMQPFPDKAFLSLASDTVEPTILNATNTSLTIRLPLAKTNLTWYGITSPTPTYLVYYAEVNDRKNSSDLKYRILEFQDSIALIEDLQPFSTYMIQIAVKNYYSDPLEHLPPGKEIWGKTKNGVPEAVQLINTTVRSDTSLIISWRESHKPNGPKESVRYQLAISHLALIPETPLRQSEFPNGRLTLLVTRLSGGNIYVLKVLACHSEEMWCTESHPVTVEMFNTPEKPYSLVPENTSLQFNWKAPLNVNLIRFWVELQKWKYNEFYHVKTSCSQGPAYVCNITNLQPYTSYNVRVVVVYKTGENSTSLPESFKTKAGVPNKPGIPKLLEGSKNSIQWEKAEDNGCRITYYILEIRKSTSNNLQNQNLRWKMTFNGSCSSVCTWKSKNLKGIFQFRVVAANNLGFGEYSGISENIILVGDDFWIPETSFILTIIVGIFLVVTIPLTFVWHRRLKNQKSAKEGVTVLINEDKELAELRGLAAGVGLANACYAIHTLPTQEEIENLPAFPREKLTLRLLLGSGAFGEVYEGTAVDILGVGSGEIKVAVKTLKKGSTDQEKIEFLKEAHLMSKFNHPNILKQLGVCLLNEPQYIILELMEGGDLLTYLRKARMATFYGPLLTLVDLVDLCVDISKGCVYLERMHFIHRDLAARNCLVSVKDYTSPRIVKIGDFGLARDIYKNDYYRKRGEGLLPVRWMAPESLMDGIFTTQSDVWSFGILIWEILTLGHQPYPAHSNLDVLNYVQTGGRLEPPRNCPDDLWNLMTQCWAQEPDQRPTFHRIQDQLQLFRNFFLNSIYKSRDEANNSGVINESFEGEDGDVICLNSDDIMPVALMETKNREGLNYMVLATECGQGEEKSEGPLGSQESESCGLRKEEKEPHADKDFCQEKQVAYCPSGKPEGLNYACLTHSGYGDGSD
# [5] = target: Maternal embryonic leucine zipper kinase (Homo sapiens, UniProt Q14680); assay type: functional
# Chain of Maternal embryonic leucine zipper kinase (Q14680 whole entry, canonical isoform): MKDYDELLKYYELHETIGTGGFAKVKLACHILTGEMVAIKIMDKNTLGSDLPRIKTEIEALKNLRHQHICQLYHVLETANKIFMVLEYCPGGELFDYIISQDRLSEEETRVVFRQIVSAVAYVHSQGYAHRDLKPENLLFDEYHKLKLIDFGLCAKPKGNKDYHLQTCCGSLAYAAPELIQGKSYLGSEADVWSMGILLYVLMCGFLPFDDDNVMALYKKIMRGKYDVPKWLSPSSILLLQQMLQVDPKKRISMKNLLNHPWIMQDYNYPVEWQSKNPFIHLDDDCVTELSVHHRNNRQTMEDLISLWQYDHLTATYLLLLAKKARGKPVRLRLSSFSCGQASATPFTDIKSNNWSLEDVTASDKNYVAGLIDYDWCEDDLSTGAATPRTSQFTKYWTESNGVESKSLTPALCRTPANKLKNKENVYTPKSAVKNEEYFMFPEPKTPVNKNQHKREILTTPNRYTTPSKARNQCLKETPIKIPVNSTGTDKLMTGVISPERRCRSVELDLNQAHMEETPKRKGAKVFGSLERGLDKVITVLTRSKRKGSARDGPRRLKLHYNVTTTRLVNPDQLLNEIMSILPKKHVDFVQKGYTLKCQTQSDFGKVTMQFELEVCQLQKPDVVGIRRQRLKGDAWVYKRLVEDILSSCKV
# [6] = target: Phosphorylase b kinase gamma catalytic chain, liver/testis isoform (Homo sapiens, UniProt P15735); assay type: functional;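 note: PHKG2 measured as one member of a kinome-wide kinase panel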
# [7] = target: MAP kinase-activated protein kinase 2 (Homo sapiens, UniProt P49137); assay type: functional;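 note: measured as one member of a kinome-wide kinase panel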
# [8] = target: Serine/threonine-protein kinase Nek4 (Homo sapiens, UniProt P51957); assay type: functional
# Chain of Serine/threonine-protein kinase Nek4 (P51957 whole entry): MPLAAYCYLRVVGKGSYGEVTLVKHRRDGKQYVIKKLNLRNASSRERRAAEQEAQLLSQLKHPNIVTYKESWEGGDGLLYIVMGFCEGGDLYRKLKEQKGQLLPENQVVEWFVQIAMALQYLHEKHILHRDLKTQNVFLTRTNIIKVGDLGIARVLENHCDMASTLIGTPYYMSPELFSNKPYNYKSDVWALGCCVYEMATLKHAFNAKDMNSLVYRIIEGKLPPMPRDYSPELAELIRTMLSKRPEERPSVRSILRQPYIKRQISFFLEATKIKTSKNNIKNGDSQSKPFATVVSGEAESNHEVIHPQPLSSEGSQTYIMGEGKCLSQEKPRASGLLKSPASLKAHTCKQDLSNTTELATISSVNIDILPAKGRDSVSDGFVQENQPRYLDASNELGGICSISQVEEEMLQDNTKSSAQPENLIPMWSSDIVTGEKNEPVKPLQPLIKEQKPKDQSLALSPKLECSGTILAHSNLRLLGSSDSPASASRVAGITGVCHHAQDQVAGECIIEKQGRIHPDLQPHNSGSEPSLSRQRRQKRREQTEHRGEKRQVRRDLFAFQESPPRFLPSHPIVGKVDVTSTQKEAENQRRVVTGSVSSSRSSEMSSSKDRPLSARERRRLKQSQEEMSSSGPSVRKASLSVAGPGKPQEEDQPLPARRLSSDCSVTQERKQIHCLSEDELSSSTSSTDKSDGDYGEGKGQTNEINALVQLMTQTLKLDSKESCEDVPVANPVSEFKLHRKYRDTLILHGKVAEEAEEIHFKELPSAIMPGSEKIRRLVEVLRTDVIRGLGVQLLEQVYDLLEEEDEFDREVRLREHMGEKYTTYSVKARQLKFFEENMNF
# [9] = target: 5'-AMP-activated protein kinase catalytic subunit alpha-1 (Homo sapiens, UniProt Q13131); assay type: functional
# [10] = target: Ribosomal protein S6 kinase beta-1 (Homo sapiens, UniProt P23443); assay type: functional;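 note: measured as one member of a kinome-wide profiling panel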
# Chain of Ribosomal protein S6 kinase beta-1 (P23443 whole entry): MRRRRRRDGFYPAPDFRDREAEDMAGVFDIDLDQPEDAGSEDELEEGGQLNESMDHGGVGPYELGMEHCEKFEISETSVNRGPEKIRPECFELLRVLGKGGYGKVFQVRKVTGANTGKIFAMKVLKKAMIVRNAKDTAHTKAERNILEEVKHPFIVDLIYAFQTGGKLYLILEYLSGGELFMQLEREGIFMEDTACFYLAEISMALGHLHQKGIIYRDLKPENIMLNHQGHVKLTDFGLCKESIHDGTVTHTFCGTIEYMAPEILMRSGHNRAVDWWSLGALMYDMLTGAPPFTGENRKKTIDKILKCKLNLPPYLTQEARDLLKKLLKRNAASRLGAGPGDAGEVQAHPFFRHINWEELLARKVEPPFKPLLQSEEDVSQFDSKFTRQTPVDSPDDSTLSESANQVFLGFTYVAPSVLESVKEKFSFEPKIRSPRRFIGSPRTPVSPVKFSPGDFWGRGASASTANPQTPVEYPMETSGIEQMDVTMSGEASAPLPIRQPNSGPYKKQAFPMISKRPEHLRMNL
# [11] = target: Vascular endothelial growth factor receptor 1 (Homo sapiens, UniProt P17948); assay type: functional;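 note: measured within a kinome-wide profiling panel, FLT1 as the panel member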
# [12] = target: MAP/microtubule affinity-regulating kinase 3 (Homo sapiens, UniProt P27448); assay type: functional;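 note: MARK3 affinity measured as one member of a kinome panel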
# Chain of MAP/microtubule affinity-regulating kinase 3 (P27448 whole entry): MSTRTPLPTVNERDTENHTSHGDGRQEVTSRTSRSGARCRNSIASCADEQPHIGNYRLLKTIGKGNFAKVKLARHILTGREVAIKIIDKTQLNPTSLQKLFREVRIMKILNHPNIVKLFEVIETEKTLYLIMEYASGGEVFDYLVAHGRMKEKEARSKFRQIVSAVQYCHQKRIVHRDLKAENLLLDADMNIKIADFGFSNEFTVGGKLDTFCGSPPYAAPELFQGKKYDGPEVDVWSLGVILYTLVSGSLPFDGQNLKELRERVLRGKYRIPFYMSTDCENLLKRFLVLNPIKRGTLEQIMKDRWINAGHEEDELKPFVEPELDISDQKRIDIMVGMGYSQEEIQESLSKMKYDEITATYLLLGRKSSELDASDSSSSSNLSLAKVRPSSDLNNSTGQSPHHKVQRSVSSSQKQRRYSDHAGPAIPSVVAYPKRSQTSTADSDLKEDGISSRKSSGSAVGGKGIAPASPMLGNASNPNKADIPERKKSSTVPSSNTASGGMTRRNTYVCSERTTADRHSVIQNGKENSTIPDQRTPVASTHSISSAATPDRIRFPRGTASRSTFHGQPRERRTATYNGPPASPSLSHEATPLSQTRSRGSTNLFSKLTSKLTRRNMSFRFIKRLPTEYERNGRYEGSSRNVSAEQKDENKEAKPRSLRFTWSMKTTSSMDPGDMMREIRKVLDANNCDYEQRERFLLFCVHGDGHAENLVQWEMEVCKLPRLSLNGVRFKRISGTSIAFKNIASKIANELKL
# [13] = target: Hepatocyte growth factor receptor (Homo sapiens, UniProt P08581); assay type: functional;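 note: kinase panel profiling across the kinome, with MET as the panel member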
Structure (SMILES),IC50 (Genome polyprotein),AC50 [1],Ki [2],Ki [3],Ki [4],Ki [5],Ki [6],Ki [7],Ki [8],Ki [9],Ki [10],Ki [11],Ki [12],Ki [13]
Cc1c(/N=C2\C=CC(=O)c3ccccc32)c(=O)n(-c2ccccc2)n1C,88.6 µM (active),2.43 µM (active),,,,,,,,,,,,
CCOC(=O)c1c2c(n(Cc3ccccc3)c1C)C(=O)C(=O)c1ccccc1-2,,0.263 µM (active),,,,,,,,,,,,
O=C(O)c1ccc(NC2=C(Cl)C(=O)c3ccccc3C2=O)cc1,7.76 µM (active),,,,,,,,,,,,,
COc1cc2c(cc1F)C(c1ccccc1Cl)=Nc1c(n[nH]c1C)N2 [RG-1530],,,> 2.51 µM (inactive),> 7.94 µM (inactive),0.02 µM (active),1.26 µM (active),3.16 µM (active),> 7.94 µM (inactive),> 6.31 µM (inactive),0.631 µM (active),> 6.31 µM (inactive),0.0501 µM (active),> 2.51 µM (inactive),
Cc1ccc2nccc(NC(=O)Nc3cccc(C(F)(F)F)n3)c2c1,,,> 2.51 µM (inactive),> 7.94 µM (inactive),> 2 µM (inactive),> 1.58 µM (inactive),> 5.01 µM (inactive),> 7.94 µM (inactive),> 6.31 µM (inactive),> 2.51 µM (inactive),> 6.31 µM (inactive),> 2 µM (inactive),> 6.31 µM (inactive),> 3.16 µM (inactive)
Cc1nn(C)c2sc3c(=O)[nH]cnc3c12,,,,,,,,,,,,,,> 31.6 µM (inactive)
